Measured values as given in publication PMC8406801, “Naringenin Inhibits Platelet Activation and Arterial Thrombosis Through Inhibition of Phosphoinositide 3-Kinase and Cyclic Nucleotide Signaling” (Frontiers in Pharmacology, 2021).
Several values for one entry are separate records, joined by “and”; a condition that tells them apart may be missing. Equal values may be shown once.

Experiments:
[1] = tested on: Akt Ser473 phosphorylation; experiment: Immunoblotting of phospho-Akt (Ser473) in ADP-stimulated washed platelets; assay type: cell-based, rat; conditions: Figure 5B: ADP 10 μM, LY294002 5 μM alone, single replicates
Procedure: (§1) For in vitro platelet aggregation, aliquots of washed platelets were preincubated with vehicle or various concentrations of naringenin for 5 min and stimulated with ADP (10 μmol/L) under stirring at 37°C for 5 min. For ex vivo platelet aggregation, PRP was incubated at 37°C for 5 min and stimulated with ADP (5 μmol/L) under stirring at 37 °C. The platelet aggregation was terminated by adding ethylenediaminetetraacetic acid (EDTA; 10 mM). Total protein was prepared using RIPA lysis buffer and protein content was determined by bicinchoninic acid (BCA) protein assay kit. Equal amounts of platelet proteins (30 μg) were separated on 10% SDS polyacrylamide gel electrophoresis (SDS-PAGE) and then transferred to poly vinylidene difluoride (PVDF) membranes and subjected to western blot. Blots were blocked with TBS-Tween 20 containing 5% BSA and probed with primary antibodies diluted in blocking solution at 4°C overnight followed by incubation with the corresponding HRP secondary antibodies. The protein bands were visualized using enhanced chemiluminescence (ECL).
FIGURE 4 Naringenin inhibits PI3K-mediated signaling in ADP-induced platelets. Washed rat platelets were preincubated without or with naringenin at 37°C for 5 min, and then stimulated with ADP (10 μmol/L) under stirring for 5 min. Platelet proteins were then extracted and analyzed by immunoblotting using PI3Kp110β antibody (A) and phospho-specific antibodies such as Akt^Ser473 (B), Akt^Thr308 (C), ERK1/2^Thr202/Tyr204 (D) and GSK3β^Ser9 (E). Total level of GAPDH was measured on each sample as a loading control. The blots shown are representative of three separate experiments. The relative protein expression levels were quantified by ImageJ 1.47v software. The level of relative protein expression obtained with vehicle control (0 μM) was taken as 1. R represents the level of relative protein expression in resting platelets. Data are expressed as means ± SD (n = 3). *p < 0.05, **p < 0.01, ***p < 0.001 compared with the vehicle control group.
FIGURE 5 Effects of naringenin combined with PI3K pan inhibitor LY294002 on platelet aggregation and Akt phosphorylation. Washed rat platelets were preincubated with naringenin (200 μmol/L) alone, the PI3K pan inhibitor LY294002 (5 μmol/L) alone or both for 5 min prior to ADP (10 μmol/L) activation. After stimulation with ADP, platelet aggregation was quantified and expressed as a percentage (A). Data are expressed as means ± SD (n = 6). ***p < 0.001 compared with the ADP-treated group, ^### p < 0.001 compared with naringenin alone or LY294002 alone. Platelet proteins were then extracted and specific antibodies were used to measure the level of total and phosphorylated Akt (B). The blots shown are representative of three separate experiments. The relative protein expression levels were quantified by ImageJ 1.47v software. The level of phosphorylation obtained in the ADP-treated group was taken as 1. Data are expressed as means ± SD (n = 3). ***p < 0.001 compared with the ADP-treated group, ^### p < 0.001 compared with naringenin alone or LY294002 alone.

washed rat platelets = experiment: ADP (10 μM)-induced aggregation of washed rat platelets; assay type: cell-based; conditions: Figure 5A: washed platelets, ADP 10 μM, LY294002 5 μM alone; single replicates
PI3Kp110β = experiment: Ex vivo immunoblotting of PI3Kp110β in ADP-stimulated PRP of treated rats; parameters: species or system rat; conditions: clopidogrel group, ex vivo; Figure 8B
Procedure: (§2) Male SD rats were randomly divided into 5 groups with 6 rats in each group. […] Sixty minutes after the last sample treatment, blood was drawn from the abdominal aorta of rats into the siliconized vacutainers containing 1:9 (v/v) 3.8% sodium citrate. The collected blood was centrifuged at 100 × g for 10 min at room temperature to obtain PRP. […] The platelet counts of PRP were adjusted to 4×10^8 cells/mL using PPP. PRP was incubated for 5 min at 37°C and then stimulated by ADP (5 μM). The maximum platelet aggregation rate was determined as mentioned above.
as §1
(§3) Blood was collected and PRP was obtained after the last treatment. Platelet aggregation was induced by ADP (5 μmol/L) (A). Data are expressed as means ± SD (n = 6). After ADP stimulation, platelet proteins were then extracted and analyzed by immunoblotting using PI3Kp110β antibody (B) and phospho-specific antibodies such as Akt^Ser473 (C), Akt^Thr308 (D) and ERK1/2^Thr202/Tyr204 (E). Total level of GAPDH was measured on each sample as a loading control. The blots shown are representative of three separate experiments. The relative protein expression levels were quantified by ImageJ 1.47v software. The level of relative protein expression obtained with vehicle control was taken as 1. R represents the level of relative protein expression in resting platelets. Data are expressed as means ± SD (n = 3). *p < 0.05, **p < 0.01, ***p < 0.001 compared with the vehicle control group (Con).
(§4) To further investigate the antiplatelet mechanisms of naringenin ex vivo, several signaling molecules such as PI3Kp110β, Akt and ERK were detected. After oral administration of naringenin (200, 400, and 800 mg/kg) to rats for 7 days, rat PRP was prepared and stimulated by ADP (5 μmol/L), and platelets were lysed to determine protein phosphorylation levels using western blot.

[2] = tested on: Akt Ser473 phosphorylation; experiment: Ex vivo immunoblotting of phospho-Akt (Ser473) in ADP-stimulated PRP of treated rats; parameters: species or system rat; conditions: clopidogrel group, ex vivo; Figure 8C
Procedure: as §2, §1, §3, §4

[3] = tested on: Akt Thr308 phosphorylation; experiment: Ex vivo immunoblotting of phospho-Akt (Thr308) in ADP-stimulated PRP of treated rats; parameters: species or system rat; conditions: clopidogrel group, ex vivo; Figure 8D
Procedure: as §2, §1, §3, §4

[4] = tested on: carotid arterial thrombus; experiment: FeCl3-induced carotid arterial thrombus model in rats; assay type: in vivo, rat; conditions: oral 7.875 mg/kg for 7 days
Procedure: To determine the effects of naringenin on thrombogenesis, a FeCl3-induced carotid arterial thrombus model was performed as reported previously with some modifications ([Eckly et al., 2011]). […] The rats were anaesthetized using 1% pentobarbital sodium salt and fixed supinely after the last administration. The left carotid artery was exposed and thrombosis was induced by applying a Whatman filter paper (5 mm × 1 mm) saturated with 10% (w/v) FeCl3 on the top of the left carotid artery for 5 min. […] Time to occlusion of the carotid artery was defined as a blood flow of 0 ml/min for 3 min. […] At the end of the experiment, the left carotid artery was dissected. A haematoxylin and eosin stain was performed on the artery.

tail bleeding = conditions: mouse, in vivo, po, 11.375 mg/kg
Procedure: Sixty minutes after the last administration, mice were anaesthetized with 1% pentobarbital sodium salt and placed on a 37°C heating pad. The tail was transected at a site 3 mm proximal to the tip and immediately immersed into saline kept at 37°C. The time to bleeding cessation (defined as no bleeding for 30 s) was measured. When the bleeding time lasted longer than 10 min, the bleeding was stopped, and the bleeding time was recorded as 10 min.

Structure (SMILES) | p-Akt Ser473 / t-Akt ([1]; raw data) | p-Akt Ser473 / t-Akt (Fold to ADP only) [1] | Aggregation (%) (washed rat platelets) | PI3Kp110β / GAPDH (Fold to Control) (PI3Kp110β) | PI3Kp110β / GAPDH (raw data) (PI3Kp110β) | p-Akt Ser473 / t-Akt (Fold to Control) [2] | p-Akt Ser473 / t-Akt (raw data) [2] | p-Akt Thr308 / t-Akt (Fold to Control) [3] | p-Akt Thr308 / t-Akt (raw data) [3] | vessel occlusion time of rats [4] | Occlusion time ([4]; 10% FeCl3, single animals, no occlusion within 20 min recorded as 20 min, 7.875 mg/kg) | effect on tail bleeding time (tail bleeding)
O=c1cc(N2CCOCC2)oc2c(-c3ccccc3)cccc12 [LY294002, reference compound] | 0.3729 and 0.2624 and 0.3579 | 0.4284 Fold to ADP only and 0.3015 Fold to ADP only and 0.4113 Fold to ADP only | 47.5% and 35.4% and 37.3% and 29.8% and 45.4% and 28.0% |  |  |  |  |  |  |  |  | 
COC(=O)[C@H](c1ccccc1Cl)N1CCc2sccc2C1 [Clopidogrel, clopidogrel, reference compound] |  |  |  | 0.8304 and 0.8095 and 1.1247 | 0.4069 and 0.3966 and 0.5511 | 0.1574 and 0.1140 and 0.1683 | 0.1750 and 0.1267 and 0.1870 | 0.3303 and 0.3457 and 0.2827 | 0.2780 and 0.2909 and 0.2379 | considerably delayed | 18.3 min and 20.0 min | markedly extended
